The values that follow come from ChEMBL document CHEMBL4229454, “Structural optimization and in vitro profiling of N-phenylbenzamide-based farnesoid X receptor antagonists” (Bioorg Med Chem, 2018).

Values after ≈ are worked out from the molar mass of the structure shown. Active and inactive are the calls of the source. The calls are words filed in the database; no cut-off is given here.

Data set [1] has as its target T1, Bile acid receptor (Homo sapiens) (UniProt Q96RI1).
T1 sequence (whole entry): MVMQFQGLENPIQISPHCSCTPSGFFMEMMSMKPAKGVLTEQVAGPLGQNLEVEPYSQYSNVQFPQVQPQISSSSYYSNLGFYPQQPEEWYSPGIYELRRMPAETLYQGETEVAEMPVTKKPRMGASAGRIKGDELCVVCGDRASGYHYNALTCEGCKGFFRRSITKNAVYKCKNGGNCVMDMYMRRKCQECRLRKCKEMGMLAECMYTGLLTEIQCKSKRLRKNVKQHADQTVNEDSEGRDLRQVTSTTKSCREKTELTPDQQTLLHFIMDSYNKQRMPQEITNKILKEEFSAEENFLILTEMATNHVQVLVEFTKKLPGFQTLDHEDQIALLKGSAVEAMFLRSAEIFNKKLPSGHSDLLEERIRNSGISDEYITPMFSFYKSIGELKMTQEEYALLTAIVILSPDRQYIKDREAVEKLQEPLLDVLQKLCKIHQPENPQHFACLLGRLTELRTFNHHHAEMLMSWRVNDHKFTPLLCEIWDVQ
Briefly: Antagonist activity at full length human FXR expressed in HeLa cells co-expressing BSEP-pGL3/pSG5-hRXR assessed as inhibition of GW4064-induced receptor activation at 30 uM after 24 hrs by luciferase reporter gene assay. The class given is cell-based. (A reporter such as luciferase makes a cellular process visible.)

Data set [2] deals with HepG2. Briefly: Cytotoxicity against human HepG2 cells assessed as reduction in cell viability at 100 uM after 48 hrs by WST1 assay relative to control. The class given is cell-based. The following applies: hepg2, 48 h. (Formazan colour is commonly taken as a measure of viable cells.)
For data set [3], the system named is HepG2. Briefly: Cytotoxicity against human HepG2 cells assessed as reduction in cell viability up to 100 uM after 48 hrs by WST1 assay. The class given is cell-based. Particulars: hepg2, 48 h.
A further data set has as its system HeLa. Briefly: Cytotoxicity against human HeLa cells co-expressing full length human FXR, BSEP-pGL3 and pSG5-hRXR assessed as reduction in cell viability up to 50 uM after 48 hrs by WST1 assay. The class given is ADME, cell-based.
Data set [4] addresses T2, Oxysterols receptor LXR-alpha (Homo sapiens) (UniProt Q13133).
T2 sequence (whole entry): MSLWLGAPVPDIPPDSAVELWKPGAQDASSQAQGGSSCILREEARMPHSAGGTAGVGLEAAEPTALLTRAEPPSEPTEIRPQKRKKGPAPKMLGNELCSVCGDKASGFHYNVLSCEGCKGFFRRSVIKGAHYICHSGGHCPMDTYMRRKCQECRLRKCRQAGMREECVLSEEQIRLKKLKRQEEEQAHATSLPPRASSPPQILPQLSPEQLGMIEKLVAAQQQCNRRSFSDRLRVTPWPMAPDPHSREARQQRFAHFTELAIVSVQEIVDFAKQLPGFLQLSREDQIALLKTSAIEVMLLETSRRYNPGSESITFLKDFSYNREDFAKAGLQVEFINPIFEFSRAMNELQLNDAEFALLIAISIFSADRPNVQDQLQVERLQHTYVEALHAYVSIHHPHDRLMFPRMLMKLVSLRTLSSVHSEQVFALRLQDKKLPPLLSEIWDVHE
Briefly: Agonist activity at GAL4-fused human LXRalpha LBD expressed in HEK293T cells at 1 uM after 12 to 14 hrs by luciferase reporter gene assay. The class given is cell-based.

In the next data set the test system is HEK293. Briefly: Cytotoxicity against HEK293 cells assessed as reduction in cell viability at >10 uM after 48 hrs by WST1 assay. The class given is cell-based. The following applies: human, hek293, 48 h.
A short description of data set [5]: Aqueous solubility of the compound. The class given is physicochemical. The following applies: water.
The target of data set [6] is T3, Retinoic acid receptor RXR-alpha (Homo sapiens) (UniProt P19793).
T3 sequence (whole entry): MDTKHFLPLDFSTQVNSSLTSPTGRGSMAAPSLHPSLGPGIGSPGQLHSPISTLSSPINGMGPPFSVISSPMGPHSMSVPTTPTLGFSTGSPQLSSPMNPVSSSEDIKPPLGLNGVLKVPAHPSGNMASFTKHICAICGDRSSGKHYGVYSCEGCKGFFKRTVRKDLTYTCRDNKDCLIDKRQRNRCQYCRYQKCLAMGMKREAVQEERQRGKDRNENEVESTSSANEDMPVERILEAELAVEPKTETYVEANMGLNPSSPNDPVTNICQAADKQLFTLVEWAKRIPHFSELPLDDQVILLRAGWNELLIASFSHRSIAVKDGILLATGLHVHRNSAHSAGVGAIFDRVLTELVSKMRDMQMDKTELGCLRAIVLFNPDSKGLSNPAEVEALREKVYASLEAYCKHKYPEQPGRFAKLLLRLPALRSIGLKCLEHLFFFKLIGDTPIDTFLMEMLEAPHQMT
As to the kind of experiment: Agonist activity at GAL4-fused human RXRalpha LBD expressed in HEK293T cells at 1 uM after 12 to 14 hrs by luciferase reporter gene assay. The class given is cell-based.

Data set [7] addresses T4, Nuclear receptor subfamily 1 group I member 3 (Homo sapiens, UniProt Q14994).
T4 sequence (Q14994 whole entry): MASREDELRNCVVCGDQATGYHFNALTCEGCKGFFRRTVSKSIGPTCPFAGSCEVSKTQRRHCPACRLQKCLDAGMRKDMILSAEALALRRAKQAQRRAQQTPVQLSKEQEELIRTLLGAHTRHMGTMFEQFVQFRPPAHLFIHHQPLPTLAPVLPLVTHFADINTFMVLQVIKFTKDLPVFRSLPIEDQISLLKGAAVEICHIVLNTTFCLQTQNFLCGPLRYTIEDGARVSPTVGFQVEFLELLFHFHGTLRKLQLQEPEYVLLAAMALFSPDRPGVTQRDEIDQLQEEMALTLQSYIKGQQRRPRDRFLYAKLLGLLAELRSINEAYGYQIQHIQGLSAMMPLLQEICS
Briefly: Agonist activity at GAL4-fused human CAR LBD expressed in HEK293T cells at 1 uM after 12 to 14 hrs by luciferase reporter gene assay. The class given is cell-based.

Data set [8] addresses Luciferin 4-monooxygenase (Photinus pyralis) (UniProt P08659). As to the kind of experiment: Inhibition of GW4064-induced firefly luciferase expression in HeLa cells co-expressing full length human FXR, BSEP-pGL3 and pSG5-hRXR at 1 uM treated at 23 hrs post GW4064 treatment for 1 hr by luminescence assay. The class given is cell-based.
Data set [9] in a line: Metabolic stability in Sprague-Dawley rat liver microsomes assessed as parent compound remaining at 10 uM in presence of NADPH measured after 15 mins by HPLC analysis. The following applies: read-out: Stability. The class given is ADME, microsome.
For data set [10], the target named is T5, Peroxisome proliferator-activated receptor gamma (Homo sapiens) (UniProt P37231).
T5 sequence (whole entry): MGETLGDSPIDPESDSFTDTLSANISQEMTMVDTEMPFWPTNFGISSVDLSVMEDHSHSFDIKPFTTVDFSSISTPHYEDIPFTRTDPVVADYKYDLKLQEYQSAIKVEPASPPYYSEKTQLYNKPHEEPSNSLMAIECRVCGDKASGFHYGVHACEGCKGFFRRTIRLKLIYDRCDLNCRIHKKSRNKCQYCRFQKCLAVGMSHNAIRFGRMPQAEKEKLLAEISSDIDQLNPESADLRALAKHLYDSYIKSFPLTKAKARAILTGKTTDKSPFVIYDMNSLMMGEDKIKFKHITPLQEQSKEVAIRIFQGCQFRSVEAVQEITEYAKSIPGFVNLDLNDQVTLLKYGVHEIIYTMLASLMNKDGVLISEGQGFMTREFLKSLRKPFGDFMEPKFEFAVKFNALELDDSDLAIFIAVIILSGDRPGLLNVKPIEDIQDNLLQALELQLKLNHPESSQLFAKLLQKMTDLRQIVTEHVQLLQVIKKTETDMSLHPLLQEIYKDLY
As to the kind of experiment: Antagonist activity at GAL4-fused human PPARgamma LBD expressed in HEK293T cells at 1 uM after 12 to 14 hrs by luciferase reporter gene assay. The class given is cell-based.

Data set [11] addresses T4, Nuclear receptor subfamily 1 group I member 3. As to the kind of experiment: Antagonist activity at GAL4-fused human CAR LBD expressed in HEK293T cells at 1 uM after 12 to 14 hrs by luciferase reporter gene assay. The class given is cell-based.
In data set [12] the target is T5, Peroxisome proliferator-activated receptor gamma (Homo sapiens). As to the kind of experiment: Agonist activity at GAL4-fused human PPARgamma LBD expressed in HEK293T cells at 1 uM after 12 to 14 hrs by luciferase reporter gene assay. The class given is cell-based.
The nature of data set [13]: Metabolic stability in Sprague-Dawley rat liver microsomes assessed as parent compound remaining at 10 uM in presence of NADPH measured immediately by HPLC analysis. The class given is ADME, microsome. Particulars: read-out: Stability. (Liver microsomes are vesicles of endoplasmic reticulum, rich in cytochrome P450 enzymes.)
A short description of data set [14]: Metabolic stability in Sprague-Dawley rat liver microsomes assessed as parent compound remaining at 10 uM in presence of NADPH measured after 60 mins by HPLC analysis. The class given is ADME, microsome. Particulars: read-out: Stability.
Data set [15] can be described thus: Metabolic stability in Sprague-Dawley rat liver microsomes assessed as parent compound remaining at 10 uM in presence of NADPH measured after 30 mins by HPLC analysis. The class given is ADME, microsome. The following applies: read-out: Stability.
For data set [16], the target named is T3, Retinoic acid receptor RXR-alpha (Homo sapiens). Briefly: Antagonist activity at GAL4-fused human RXRalpha LBD expressed in HEK293T cells at 1 uM after 12 to 14 hrs by luciferase reporter gene assay. The class given is cell-based.
Data set [17] has as its target T2, Oxysterols receptor LXR-alpha (Homo sapiens). As to the kind of experiment: Antagonist activity at GAL4-fused human LXRalpha LBD expressed in HEK293T cells at 1 uM after 12 to 14 hrs by luciferase reporter gene assay. The class given is cell-based.

Sequence of Luciferin 4-monooxygenase (Photinus pyralis) (P08659 whole entry): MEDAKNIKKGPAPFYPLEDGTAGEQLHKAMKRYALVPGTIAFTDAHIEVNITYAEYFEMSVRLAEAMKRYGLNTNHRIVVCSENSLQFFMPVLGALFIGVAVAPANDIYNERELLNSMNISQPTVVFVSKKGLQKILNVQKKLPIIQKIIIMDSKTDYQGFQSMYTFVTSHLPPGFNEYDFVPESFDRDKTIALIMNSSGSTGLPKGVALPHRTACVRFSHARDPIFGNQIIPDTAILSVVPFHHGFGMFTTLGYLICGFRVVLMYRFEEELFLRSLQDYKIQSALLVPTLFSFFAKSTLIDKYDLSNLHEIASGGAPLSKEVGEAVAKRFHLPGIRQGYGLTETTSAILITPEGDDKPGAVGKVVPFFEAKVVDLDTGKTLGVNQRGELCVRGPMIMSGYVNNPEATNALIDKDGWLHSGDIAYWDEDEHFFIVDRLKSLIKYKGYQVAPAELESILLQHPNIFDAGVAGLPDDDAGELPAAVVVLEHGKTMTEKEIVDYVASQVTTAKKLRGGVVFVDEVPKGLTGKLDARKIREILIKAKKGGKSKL

Turning to `COc1ccc(C(C)(C)C)cc1C(=O)Nc1ccc(CC(=O)O)cc1`, the inhibition result in data set [1] is “inactive”.

Turning to `COc1cc(C(=O)Nc2ccc(CC(=O)O)cc2)ccc1C(C)(C)C`, the Activity with HepG2 [2] came out at 112%.

As for `COc1cc(C(C)(C)C)ccc1C(=O)Nc1ccc(CC(=O)O)cc1`, the Activity result in the data set on HepG2 [3] is recorded as “Non-Toxic”; in the data set with HeLa, “Non-Toxic”; in the data set with HEK293, “Non-Toxic”; in data set [7], “Not Active”. In addition, the outcome in data set [4], in [6] and in [12] was inactive. Moreover, in [5], the concentration in solution (solubility) was 16 µg/mL (≈ 46.9 µM). Also, the inhibition result in [8], in [10], in data set [16] and in data set [17] was “inactive” each time. Besides, the remaining at 0.25 h, 10 µM in [9] worked out at 98%. Besides, the “inhibition (INH)” value in data set [11] is “Not Active”. For the same compound, the remaining at 0 min, 10 µM in [13] was found to be 100%. The remaining at 1 h, 10 µM in [14] amounted to 97%. Besides, in data set [15], the remaining at 0.5 h, 10 µM was determined as 96%.

In the case of `CC(C)(C)c1ccc(C(=O)Nc2ccccc2CC(=O)O)cc1`, the Activity in the data set with HepG2 [2] turned out to be 118%.

Turning to `O=C(O)Cc1ccc(NC(=O)c2ccccc2-c2ccccc2)cc1`, in data set [1], the inhibition result is “inactive”.

As for `CC(C)(C)c1ccc(C(=O)Nc2cccc(CC(=O)O)c2)cc1`, the inhibition entry in data set [8] is “inactive”.
